Data as given in publication PMC9894920, “Development of an improved and specific inhibitor of NADPH oxidase 2 to treat traumatic brain injury” (Redox Biology, 2023).
Converted amounts (≈) assume the structure as drawn.

What was measured:
NOX2 [1] = target: T1, NOX2 (Mus musculus, UniProt Q61093); experiment: NOX2 activity in primary mouse neutrophils enriched from bone marrow; type: cell-based; settings: SD, n = 8 mice
T1 construct: relative potencies in primary mouse neutrophils enriched from bone marrow; endogenous in cells; host or cells: primary mouse bone-marrow granulocytes
T1 sequence (Q61093 2-570 limits assumed): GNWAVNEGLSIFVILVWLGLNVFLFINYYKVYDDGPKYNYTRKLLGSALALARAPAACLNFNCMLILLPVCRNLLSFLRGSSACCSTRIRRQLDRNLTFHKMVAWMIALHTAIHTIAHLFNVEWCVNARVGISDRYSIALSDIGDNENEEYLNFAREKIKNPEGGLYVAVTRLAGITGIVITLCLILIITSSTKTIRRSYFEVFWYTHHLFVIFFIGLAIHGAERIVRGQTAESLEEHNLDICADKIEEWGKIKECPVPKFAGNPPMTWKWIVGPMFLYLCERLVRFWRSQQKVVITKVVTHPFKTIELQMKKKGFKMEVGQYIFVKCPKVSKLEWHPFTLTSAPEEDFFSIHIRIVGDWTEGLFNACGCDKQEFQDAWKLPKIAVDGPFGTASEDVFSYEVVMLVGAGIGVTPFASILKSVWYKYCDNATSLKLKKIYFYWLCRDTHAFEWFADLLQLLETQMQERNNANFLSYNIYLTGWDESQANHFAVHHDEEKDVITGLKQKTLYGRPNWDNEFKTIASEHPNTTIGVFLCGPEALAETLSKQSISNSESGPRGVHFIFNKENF
T1 sequence (Q61462 2-192 partner limits assumed): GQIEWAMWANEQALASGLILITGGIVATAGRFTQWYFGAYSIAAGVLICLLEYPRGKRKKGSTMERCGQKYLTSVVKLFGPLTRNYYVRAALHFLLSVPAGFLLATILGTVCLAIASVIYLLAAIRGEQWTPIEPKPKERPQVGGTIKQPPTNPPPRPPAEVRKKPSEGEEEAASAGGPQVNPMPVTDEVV
Experimental: Human blood was obtained after informed consent by the Department of Transfusion Medicine (NIH Clinical Center) and provided as de-identified specimens. Human granulocytes were isolated using Percoll density fractionation as described and NOX2 activity was assessed in white polypropylene flat bottom 96 well plates following 15 min of preincubation at 37 °C with compounds or vehicle controls using 50 μM luminol as a chemiluminescence enhancer in an assay volume of 100 μl RPMI1640 with 1.1 × 10^5 cells/well in Varioskan Lux luminometer for 30 cycles of 1 s per well (approximately 1 h).
Mouse granulocytes were isolated from bone marrow essentially as described except bones were not sterilized in ethanol and marrow was not flushed through a 100 μm strainer. Furthermore, RPMI1640 was supplemented with 10% FBS, 2 mM EDTA, and 25 mM HEPES buffer and penicillin/streptomycin was omitted. Polymorphonuclear leukocytes (PMN) concentration and purity (>90% granulocytes) were assessed microscopically using 3% acetic acid and a hemacytometer. NOX2 activity was assessed as described above with human granulocytes.

[2] = Aqueous kinetic solubility in PBS buffer; type: physicochemical; settings: aqueous buffer, kinetic from dmso stock, read-out: Solubility
Experimental: The rat liver microsomal stability, parallel artificial membrane permeability assay (PAMPA), and aqueous kinetic solubility assay in phosphate-buffered saline (PBS) buffer were performed as described in the indicated references.

NOX2 [3] = target: T2, NOX2 (Homo sapiens, UniProt P04839); experiment: Expi293 whole cell assay, NOX2 overexpression; type: cell-based; settings: Expi293 cells expressing NOX2
T2 sequence (P04839 2-570 limits assumed): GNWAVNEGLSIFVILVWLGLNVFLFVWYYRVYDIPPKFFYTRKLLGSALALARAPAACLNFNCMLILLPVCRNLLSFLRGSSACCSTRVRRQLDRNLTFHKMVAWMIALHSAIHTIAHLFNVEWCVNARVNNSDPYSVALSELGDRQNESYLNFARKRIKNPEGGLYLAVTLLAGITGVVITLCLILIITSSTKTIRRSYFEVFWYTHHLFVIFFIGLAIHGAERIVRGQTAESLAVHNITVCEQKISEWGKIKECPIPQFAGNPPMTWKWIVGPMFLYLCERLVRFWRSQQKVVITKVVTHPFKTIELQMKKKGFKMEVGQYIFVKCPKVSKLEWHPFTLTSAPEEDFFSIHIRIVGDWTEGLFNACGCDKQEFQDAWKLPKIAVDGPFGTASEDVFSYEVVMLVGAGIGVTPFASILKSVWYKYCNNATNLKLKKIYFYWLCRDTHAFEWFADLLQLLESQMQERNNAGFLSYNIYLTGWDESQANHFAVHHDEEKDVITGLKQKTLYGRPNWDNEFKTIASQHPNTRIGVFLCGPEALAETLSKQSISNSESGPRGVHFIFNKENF
T2 sequence (P13498 2-195 partner limits assumed): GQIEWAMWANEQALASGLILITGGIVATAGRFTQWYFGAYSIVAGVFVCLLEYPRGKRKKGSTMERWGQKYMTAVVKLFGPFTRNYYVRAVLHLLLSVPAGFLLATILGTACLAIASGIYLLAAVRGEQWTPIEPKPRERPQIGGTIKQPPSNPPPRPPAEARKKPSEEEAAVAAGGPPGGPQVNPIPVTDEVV
Experimental: Given concerns about previous assays for specific NOX family members [45] we here report the first use of the Expi293 Expression System (Thermo Scientific) to overexpress NOX1, 2, 3, 4, and 5 in excess of any endogenous NOX proteins present in these cells. Transfections were performed following the manufacturer's instructions using the plasmids for each NOX as described in Supplemental Table 2 except that the enhancer solution provided with the Expi293 system was not used because it promoted enzyme activation.
After the times indicated in Supplemental Table 2, cells were washed and 50,000 added per well of a white 96-well plate (Greiner) along with 50 μM Luminol and 2.5 U horseradish peroxidase/mL in a volume of 90 μl for NOX1, NOX2, and NOX5. Inhibitors or vehicle controls were added and cells were incubated for 20 min at 37 °C prior to activation with the indicated stimuli. […] Chemiluminescence was measured every 2 min for 1 s per well at 37 °C in a Varioscan Multimode reader. AUC data were analyzed using GraphPad Prism using non-linear regression analysis after expressing relative to control alone (maximum ROS production).

In the case of `Cn1ccc(S(=O)(=O)Nc2ccnc3c2c(-c2ccc4ccn(C)c4c2)cn3C2CC2)n1` [NCATS-SM7270, N-(1-cyclopropyl-3-(1-methyl-1H-indol-6-yl)-1H-pyrrolo [2,3-b]pyridin-4-yl)-1-methyl-1H-pyrazole-3-sulfonamide], the IC50 (NOX2 [1]) is reported as 4.28 ± 1.05 µM, the solubility [2] is reported as 19.6 µg/mL (≈ 43.9 µM) and the “improvement in potency toward NOX2 compared with GSK2795039” value (NOX2 [3]) is reported as 2 fold.
